Where two headings read alike, the source gives them in different places.
How the values were obtained:
[1] = test system: women diagnosed with sexual arousal disorder; settings: single intranasal dose of 20 mg; cited from earlier work
[2] = Example 1: pharmacokinetics after in-clinic subcutaneous dose; format: in vivo, human; settings: for AUC(0-t) / Cmax: human, sc
Description: Ambulatory blood pressure monitoring was conducted following both placebo and randomized treatment group in-clinic administrations. Three periods of ambulatory blood pressure monitoring were included, the first period was from before to 24 hours after a single, in-clinic dose of placebo (to establish a baseline); the second and third periods occurred from before to 24 hours after each of 2 single, in-clinic doses of double-blind treatment, administered within 14 days of each other. Blood samples for pharmacokinetic analysis were collected before and at 0.5, 1.0, and 2.0 hours after each in-clinic bremelanotide single-dose treatment (double-blind only), to permit analysis of concentration-response relationships.
Mean pharmacokinetic parameters were determined by bremelanotide dose and visit, including Cmax determinations (the highest ng/mL concentration at either 0.5 or 1 hour post administration) and AUC determinations at two hours and, for a subset of subjects in each group, at four hours.
The Cmax for the mean curve was calculated by averaging the concentrations at each time point (0.5, 1, 2 and 4 hours), and this is shown in FIG. 3.

[3] = test system: premenopausal and postmenopausal women with FSAD; assay: Phase 2 intranasal trials in women with FSAD: efficacy and adverse events; format: in vivo, human
Description: In the bremelanotide premenopausal arm, 42.5% of the subjects were discontinued due to hypertension, nausea, vomiting or myalgia. Subjects received a 10 mg intranasal dose of bremelanotide, with premenopausal subjects determined to have a mean plasma concentration of 88.5±51.9 ng/mL and a % CV of 58.6, and postmenopausal subjects determined to have a mean plasma concentration of 93.2±68.5 ng/mL and a % CV of 73.5. The minimum and maximum plasma concentration levels for all women at thirty minutes post dose range from 0.0 ng/mL to 207.0 ng/mL.
Results with premenopausal women in a placebo-controlled, randomized, double-blind, parallel group, at-home exploratory study to evaluate the efficacy and safety of intranasally administered bremelanotide in subjects with female sexual arousal disorder (FSAD) were compared against results in the study of Example 1. In the intranasal study, a total of 76 premenopausal subjects were randomized, with 40 subjects to receive bremelanotide and 36 to receive placebo. Twenty-two subjects treated with bremelanotide and 29 treated with placebo completed the study, with 16 subjects who received bremelanotide (40%) discontinuing from the study due to an adverse event. This compares to the study of Example 1, in which as shown by Table 6 only 8% of subjects on the 1.75 mg subcutaneous dose discontinuing due to an adverse event.

[4] = Pharmacokinetics of subcutaneous administration in healthy adult males; format: in vivo; settings: male, human, plasma, sc, read-out: Median Tmax
Source text: Results of Tmax values were compared between subcutaneous administration (SC) and intranasal (IN) administration of various doses of bremelanotide, as shown in FIG. 1.

**Q.** With `CCCC[C@H](NC(C)=O)C(=O)N[C@H]1CC(=O)NCCCC[C@@H](C(=O)O)NC(=O)[C@H](Cc2c[nH]c3ccccc23)NC(=O)[C@H](CCCNC(=N)N)NC(=O)[C@@H](Cc2ccccc2)NC(=O)[C@H](Cc2c[nH]cn2)NC1=O` [bremelanotide, Ac-Nle-cyclo(-Asp-His-D-Phe-Arg-Trp-Lys)-OH] as the compound, how does the “Vaginal pulse amplitude measures compared to placebo” value [1] read?
**A.** without statistically relevant differences

**Q.** What about the “Cmax, Max” value ([2]; 1.75 mg SC, Visit 5) of the same compound?
**A.** 0.115 µg/mL

**Q.** And the “Cmax, Min” value ([2]; 1.75 mg SC, Visit 5)?
**A.** 0.015 µg/mL

**Q.** What about the AUC(0-t) ([2]; blood, 0.75 mg, 0.75 mg SC, Visit 5, read-out: AUC(0-2h), Median) of the same compound?
**A.** 0.052 µg·h/mL

**Q.** What about the AUC(0-t) ([2]; blood, 0.75 mg, 0.75 mg SC, Visit 5, read-out: AUC(0-4h), Median) of the same compound?
**A.** 0.08 µg·h/mL

**Q.** And the Cmax ([2]; blood, 0.75 mg, 0.75 mg SC, Visit 5, read-out: Cmax, Median)?
**A.** 0.036 µg/mL

**Q.** And the AUC(0-t) ([2]; blood, 0.75 mg, 0.75 mg SC, Visit 7, read-out: AUC(0-2h), Mean)?
**A.** 0.053 µg·h/mL

**Q.** What about the AUC(0-t) ([2]; blood, 0.75 mg, 0.75 mg SC, Visit 7, read-out: AUC(0-2h), Median) of the same compound?
**A.** 0.052 µg·h/mL

**Q.** What about the AUC(0-t) ([2]; blood, 0.75 mg, 0.75 mg SC, Visit 7, read-out: AUC(0-4h), Mean) of the same compound?
**A.** 0.08 µg·h/mL

**Q.** What about the AUC(0-t) ([2]; blood, 0.75 mg, 0.75 mg SC, Visit 7, read-out: AUC(0-4h), Median) of the same compound?
**A.** 0.079 µg·h/mL

**Q.** And the Cmax ([2]; blood, 0.75 mg, 0.75 mg SC, Visit 7, read-out: Cmax, Median)?
**A.** 0.037 µg/mL

**Q.** What about the AUC(0-t) ([2]; blood, 1.25 mg, 1.25 mg SC, Visit 5, read-out: AUC(0-2h), Mean) of the same compound?
**A.** 0.086 µg·h/mL

**Q.** What about the AUC(0-t) ([2]; blood, 1.25 mg, 1.25 mg SC, Visit 5, read-out: AUC(0-2h), Median) of the same compound?
**A.** 0.081 µg·h/mL

**Q.** And the AUC(0-t) ([2]; blood, 1.25 mg, 1.25 mg SC, Visit 5, read-out: AUC(0-4h), Mean)?
**A.** 0.138 µg·h/mL

**Q.** And the AUC(0-t) ([2]; blood, 1.25 mg, 1.25 mg SC, Visit 5, read-out: AUC(0-4h), Median)?
**A.** 0.136 µg·h/mL

**Q.** And the Cmax ([2]; blood, 1.25 mg, 1.25 mg SC, Visit 5, read-out: Cmax, Mean)?
**A.** 0.06 µg/mL

**Q.** What about the Cmax ([2]; blood, 1.25 mg, 1.25 mg SC, Visit 5, read-out: Cmax, Median) of the same compound?
**A.** 0.056 µg/mL

**Q.** And the AUC(0-t) ([2]; blood, 1.25 mg, 1.25 mg SC, Visit 7, read-out: AUC(0-2h), Mean)?
**A.** 0.084 µg·h/mL

**Q.** And the AUC(0-t) ([2]; blood, 1.25 mg, 1.25 mg SC, Visit 7, read-out: AUC(0-2h), Median)?
**A.** 0.084 µg·h/mL

**Q.** What about the AUC(0-t) ([2]; blood, 1.25 mg, 1.25 mg SC, Visit 7, read-out: AUC(0-4h), Mean) of the same compound?
**A.** 0.142 µg·h/mL

**Q.** What about the AUC(0-t) ([2]; blood, 1.25 mg, 1.25 mg SC, Visit 7, read-out: AUC(0-4h), Median) of the same compound?
**A.** 0.144 µg·h/mL

**Q.** And the Cmax ([2]; blood, 1.25 mg, 1.25 mg SC, Visit 7, read-out: Cmax, Mean)?
**A.** 0.06 µg/mL

**Q.** And the Cmax ([2]; blood, 1.25 mg, 1.25 mg SC, Visit 7, read-out: Cmax, Median)?
**A.** 0.06 µg/mL

**Q.** What about the AUC(0-t) ([2]; in vivo, 0.75 mg, 0.75 mg SC, Visit 5, read-out: AUC(0-2h), Mean) of the same compound?
**A.** 0.053 µg·h/mL

**Q.** And the AUC(0-t) ([2]; in vivo, 0.75 mg, 0.75 mg SC, Visit 5, read-out: AUC(0-4h), Mean)?
**A.** 0.084 µg·h/mL

**Q.** What about the Cmax ([2]; in vivo, 0.75 mg, 0.75 mg SC, Visit 5, read-out: Cmax, Mean) of the same compound?
**A.** 0.037 µg/mL

**Q.** What about the Cmax ([2]; in vivo, 0.75 mg, 0.75 mg SC, Visit 7, read-out: Cmax, Mean) of the same compound?
**A.** 0.038 µg/mL

**Q.** What about the AUC(0-t) ([2]; in vivo, 1.75 mg, 1.75 mg SC, Visit 5, read-out: AUC(0-2h), Mean) of the same compound?
**A.** 0.112 µg·h/mL

**Q.** And the AUC(0-t) ([2]; in vivo, 1.75 mg, 1.75 mg SC, Visit 5, read-out: AUC(0-2h), Median)?
**A.** 0.112 µg·h/mL

**Q.** And the AUC(0-t) ([2]; in vivo, 1.75 mg, 1.75 mg SC, Visit 5, read-out: AUC(0-4h), Mean)?
**A.** 0.178 µg·h/mL

**Q.** And the AUC(0-t) ([2]; in vivo, 1.75 mg, 1.75 mg SC, Visit 5, read-out: AUC(0-4h), Median)?
**A.** 0.179 µg·h/mL

**Q.** And the Cmax ([2]; in vivo, 1.75 mg, 1.75 mg SC, Visit 5, read-out: Cmax, Mean)?
**A.** 0.077 µg/mL

**Q.** And the Cmax ([2]; in vivo, 1.75 mg, 1.75 mg SC, Visit 5, read-out: Cmax, Median)?
**A.** 0.078 µg/mL

**Q.** And the AUC(0-t) ([2]; in vivo, 1.75 mg, 1.75 mg SC, Visit 7, read-out: AUC(0-2h), Mean)?
**A.** 0.112 µg·h/mL

**Q.** What about the AUC(0-t) ([2]; in vivo, 1.75 mg, 1.75 mg SC, Visit 7, read-out: AUC(0-2h), Median) of the same compound?
**A.** 0.111 µg·h/mL

**Q.** What about the AUC(0-t) ([2]; in vivo, 1.75 mg, 1.75 mg SC, Visit 7, read-out: AUC(0-4h), Mean) of the same compound?
**A.** 0.184 µg·h/mL

**Q.** What about the AUC(0-t) ([2]; in vivo, 1.75 mg, 1.75 mg SC, Visit 7, read-out: AUC(0-4h), Median) of the same compound?
**A.** 0.18 µg·h/mL

**Q.** What about the Cmax ([2]; in vivo, 1.75 mg, 1.75 mg SC, Visit 7, read-out: Cmax, Mean) of the same compound?
**A.** 0.078 µg/mL

**Q.** And the Cmax ([2]; in vivo, 1.75 mg, 1.75 mg SC, Visit 7, read-out: Cmax, Median)?
**A.** 0.077 µg/mL

**Q.** And the Cmax ([2]; in vivo, 1.75 mg, 1.75 mg subcutaneous dose, Example 1, read-out: Cmax, maximum)?
**A.** 0.115 µg/mL

**Q.** What about the Cmax ([2]; in vivo, 1.75 mg, 1.75 mg subcutaneous dose, Example 1, read-out: Cmax, mean) of the same compound?
**A.** 0.0772 ± 0.0195 µg/mL

**Q.** And the Cmax ([2]; in vivo, 1.75 mg, 1.75 mg subcutaneous dose, Example 1, read-out: Cmax, median)?
**A.** 0.078 µg/mL

**Q.** And the Cmax ([2]; in vivo, 1.75 mg, 1.75 mg subcutaneous dose, Example 1, read-out: Cmax, minimum)?
**A.** 0.015 µg/mL

**Q.** And the “Subjects reporting at least one adverse event” value ([3]; 10 mg intranasal, postmenopausal, placebo 47.7%)?
**A.** 100%

**Q.** And the “Subjects discontinuing from the study due to an adverse event” value ([3]; 10 mg intranasal, premenopausal, 16 of 40 subjects)?
**A.** 40%

**Q.** And the “Sexual desire and arousal compared to placebo” value ([3]; intranasal, premenopausal and postmenopausal women with FSAD)?
**A.** increase sexual desire and arousal compared to placebo

**Q.** What about the Tmax [4] of the same compound?
**A.** 30 to 60 min

From patent US9352013B2, “Uses of bremelanotide in therapy for female sexual dysfunction” (Palatin Technologies, Inc., priority 2012, dated 2016)
